In the supplement of paper PMC10307832:

Tests used:
Assay in all cases: relative viability (nuclei count vs DMSO), 5 days (fraction); higher = more cells survive
A549 = tested on: A549
Outline: (§1)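 Cells from lung cancer lines were seeded into 1536-well plates and, one day later, dosed by pin tool. Treatments were either a single drug or a fixed dose of an anchor drug with five library-drug doses (not always all listed) in √10 steps. After 5 days, nuclei were stained in a one-step fixation (final 0.05% Triton X-100, 1% formaldehyde, 1 ug/ml Hoechst) and counted on 4× images, and relative viability is the treated-to-vehicle nuclei ratio, as the median of duplicate plates.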

ChaGo-K-1 = tested on: ChaGo-K-1
Outline: as §1

Calu-6 = tested on: Calu-6
Outline: as §1

NCI-H1299 = tested on: NCI-H1299
Outline: as §1

EBC-1 = tested on: EBC-1
Outline: as §1

IA-LM = tested on: IA-LM
Outline: as §1

NCI-H1703 = tested on: NCI-H1703
Outline: as §1

NCI-H1648 = tested on: NCI-H1648
Outline: as §1

Compound | relative viability (A549; first compound 0.04 µM) | relative viability (A549; first compound 0.1265 µM) | relative viability (A549; first compound 0.4 µM) | relative viability (A549; first compound 4 µM) | relative viability (ChaGo-K-1; first compound 0.1265 µM) | relative viability (ChaGo-K-1; first compound 4 µM) | relative viability (Calu-6; first compound 0.1265 µM) | relative viability (Calu-6; first compound 0.4 µM) | relative viability (Calu-6; first compound 4 µM) | relative viability (NCI-H1299; first compound 0.04 µM) | relative viability (NCI-H1299; first compound 0.1265 µM) | relative viability (NCI-H1299; first compound 0.4 µM) | relative viability (NCI-H1299; first compound 4 µM) | relative viability (EBC-1; first compound 0.04 µM) | relative viability (EBC-1; first compound 0.1265 µM) | relative viability (EBC-1; first compound 0.4 µM) | relative viability (EBC-1; first compound 4 µM) | relative viability (IA-LM; first compound 0.04 µM) | relative viability (IA-LM; first compound 0.1265 µM) | relative viability (IA-LM; first compound 0.4 µM) | further results
Clc1ccc(Nc2nnc(Cc3ccncc3)c3ccccc23)cc1 [Vatalanib] + CC1(C)CCC(c2ccc(Cl)cc2)=C(CN2CCN(c3ccc(C(=O)NS(=O)(=O)c4ccc(N[C@H](CCN5CCOCC5)CSc5ccccc5)c(S(=O)(=O)C(F)(F)F)c4)cc3)CC2)C1 [Navitoclax] (partner 0.5 µM) | 1.21 | 1.33 | 1.31 | 1.06 | 0.94 | 1.16 | 0.756 | 0.913 | 0.757 | 1.04 | 1.05 | 1.06 | 1.06 | 0.382 | 0.396 | 0.46 | 0.328 | 0.869 | 0.701 | 0.686 | relative viability (A549; first compound 1.265 µM): 1.16; relative viability (ChaGo-K-1; first compound 0.04 µM): 0.565; relative viability (ChaGo-K-1; first compound 1.265 µM): 0.934; relative viability (Calu-6; first compound 0.04 µM): 0.919; relative viability (Calu-6; first compound 1.265 µM): 0.788; relative viability (NCI-H1299; first compound 1.265 µM): 1.04; relative viability (EBC-1; first compound 1.265 µM): 0.368; relative viability (IA-LM; first compound 1.265 µM): 0.746; relative viability (IA-LM; first compound 4 µM): 0.737; relative viability (NCI-H1703; first compound 0.04 µM): 0.994; relative viability (NCI-H1703; first compound 0.4 µM): 1.71; relative viability (NCI-H1703; first compound 1.265 µM): 0.643; relative viability (NCI-H1703; first compound 4 µM): 0.301
Clc1ccc(Nc2nnc(Cc3ccncc3)c3ccccc23)cc1 [Vatalanib] + CS(=O)(=O)N1CCN(Cc2cc3nc(-c4cccc5[nH]ncc45)nc(N4CCOCC4)c3s2)CC1 [Pictilisib] (partner 1 µM) | 0.495 | 0.506 | 0.502 | 0.505 | 0.719 | 0.787 | 0.907 | 0.986 | 0.835 | 0.835 | 0.703 | 0.967 | 0.857 | 0.346 | 0.393 | 0.45 | 0.411 | 0.368 | 0.354 | 0.319 | relative viability (A549; first compound 1.265 µM): 0.52; relative viability (ChaGo-K-1; first compound 0.04 µM): 0.418; relative viability (ChaGo-K-1; first compound 1.265 µM): 0.687; relative viability (Calu-6; first compound 0.04 µM): 0.891; relative viability (Calu-6; first compound 1.265 µM): 0.883; relative viability (NCI-H1299; first compound 1.265 µM): 0.66; relative viability (EBC-1; first compound 1.265 µM): 0.276; relative viability (IA-LM; first compound 1.265 µM): 0.337; relative viability (IA-LM; first compound 4 µM): 0.36; relative viability (NCI-H1703; first compound 0.04 µM): 0.229; relative viability (NCI-H1703; first compound 0.1265 µM): 0.206; relative viability (NCI-H1703; first compound 0.4 µM): 0.242; relative viability (NCI-H1703; first compound 1.265 µM): 0.209; relative viability (NCI-H1703; first compound 4 µM): 0.227
CC(C)Oc1cc(Nc2nc(N[C@@H](C)c3ccc(F)cn3)ncc2Cl)n[nH]1 [AZ23] + C[C@@H](Oc1cc(-c2cnn(C3CCNCC3)c2)cnc1N)c1c(Cl)ccc(F)c1Cl [Crizotinib] (partner 1 µM) | – | – | – | – | – | – | – | – | – | – | – | – | – | – | – | – | – | – | – | – | relative viability (A549; first compound 0.01 µM): 1.08; relative viability (A549; first compound 0.03162 µM): 1.03; relative viability (A549; first compound 0.3162 µM): 0.943; relative viability (ChaGo-K-1; first compound 0.01 µM): 1.37; relative viability (ChaGo-K-1; first compound 0.03162 µM): 1.08; relative viability (ChaGo-K-1; first compound 0.3162 µM): 1.24; relative viability (Calu-6; first compound 0.03162 µM): 0.987; relative viability (Calu-6; first compound 0.3162 µM): 0.974; relative viability (NCI-H1299; first compound 0.01 µM): 1.06; relative viability (NCI-H1299; first compound 0.03162 µM): 1.01; relative viability (NCI-H1299; first compound 0.3162 µM): 1.08; relative viability (EBC-1; first compound 0.03162 µM): 0.196; relative viability (EBC-1; first compound 0.3162 µM): 0.185; relative viability (IA-LM; first compound 0.01 µM): 0.919; relative viability (IA-LM; first compound 0.03162 µM): 0.824; relative viability (IA-LM; first compound 0.3162 µM): 0.813; relative viability (NCI-H1703; first compound 0.01 µM): 0.51; relative viability (NCI-H1703; first compound 0.03162 µM): 0.761; relative viability (NCI-H1703; first compound 0.3162 µM): 0.626
Clc1ccc(Nc2nnc(Cc3ccncc3)c3ccccc23)cc1 [Vatalanib] + O=C(c1cc(Cc2n[nH]c(=O)c3ccccc23)ccc1F)N1CCN(C(=O)C2CC2)CC1 [Olaparib] (partner 8 µM) | 0.478 | 0.302 | 0.532 | 0.3 | 0.457 | 0.433 | 0.567 | 0.539 | 0.541 | 0.986 | 0.924 | 1.04 | 0.965 | 0.761 | 0.59 | 0.817 | 0.654 | 0.89 | 0.843 | 0.831 | relative viability (NCI-H1648; first compound 0.04 µM): 0.943; relative viability (NCI-H1648; first compound 0.1265 µM): 0.866; relative viability (NCI-H1648; first compound 0.4 µM): 1.01; relative viability (NCI-H1648; first compound 1.265 µM): 0.611; relative viability (NCI-H1648; first compound 4 µM): 1.04; relative viability (A549; first compound 1.265 µM): 0.239; relative viability (ChaGo-K-1; first compound 0.04 µM): 0.412; relative viability (ChaGo-K-1; first compound 0.4 µM): 0.466; relative viability (ChaGo-K-1; first compound 1.265 µM): 0.42; relative viability (Calu-6; first compound 1.265 µM): 0.554; relative viability (NCI-H1299; first compound 1.265 µM): 0.923; relative viability (EBC-1; first compound 1.265 µM): 0.663; relative viability (IA-LM; first compound 1.265 µM): 0.701; relative viability (IA-LM; first compound 4 µM): 0.645; relative viability (NCI-H1703; first compound 0.04 µM): 0.506; relative viability (NCI-H1703; first compound 0.4 µM): 0.624; relative viability (NCI-H1703; first compound 1.265 µM): 0.299; relative viability (NCI-H1703; first compound 4 µM): 0.22
C[C@@H]1CN(CC(=O)Nc2ccc3c(c2)Cc2cccc(-c4cc(=O)cc(N5CCOCC5)o4)c2S3)C[C@H](C)O1 + C[C@@H](Oc1cc(-c2cnn(C3CCNCC3)c2)cnc1N)c1c(Cl)ccc(F)c1Cl [Crizotinib] (partner 1 µM) | 0.909 | 0.772 | 0.874 | 0.522 | 1.09 | 1.13 | 0.719 | 0.597 | 0.528 | 0.915 | 0.92 | 0.844 | 0.837 | 0.202 | 0.203 | 0.201 | 0.2 | 1.02 | 0.671 | 0.657 | relative viability (ChaGo-K-1; first compound 0.4 µM): 1.21; relative viability (Calu-6; first compound 0.04 µM): 0.829; relative viability (IA-LM; first compound 4 µM): 0.36; relative viability (NCI-H1703; first compound 0.04 µM): 0.607; relative viability (NCI-H1703; first compound 0.1265 µM): 0.678; relative viability (NCI-H1703; first compound 0.4 µM): 0.595; relative viability (NCI-H1703; first compound 4 µM): 0.513
C[C@@H]1CN(CC(=O)Nc2ccc3c(c2)Cc2cccc(-c4cc(=O)cc(N5CCOCC5)o4)c2S3)C[C@H](C)O1 + CC1(C)CCC(c2ccc(Cl)cc2)=C(CN2CCN(c3ccc(C(=O)NS(=O)(=O)c4ccc(N[C@H](CCN5CCOCC5)CSc5ccccc5)c(S(=O)(=O)C(F)(F)F)c4)cc3)CC2)C1 [Navitoclax] (partner 0.5 µM) | 1.3 | 1.2 | 1.23 | 0.912 | 0.933 | 0.936 | 0.831 | 0.889 | 0.54 | 1.03 | 1.04 | 1.01 | 0.941 | 0.405 | 0.432 | 0.287 | 0.216 | 0.759 | 0.787 | 0.669 | relative viability (ChaGo-K-1; first compound 0.4 µM): 0.956; relative viability (Calu-6; first compound 0.04 µM): 0.871; relative viability (IA-LM; first compound 4 µM): 0.317; relative viability (NCI-H1703; first compound 0.04 µM): 1.42; relative viability (NCI-H1703; first compound 0.1265 µM): 1.45; relative viability (NCI-H1703; first compound 0.4 µM): 0.911; relative viability (NCI-H1703; first compound 4 µM): 0.808
COc1cc(N2CCC(C(N)=O)CC2)ccc1Nc1nc(N)c(Cl)c(Nc2ccccc2S(=O)(=O)C(C)C)n1 [HG-5-88-01] + C[C@@H](Oc1cc(-c2cnn(C3CCNCC3)c2)cnc1N)c1c(Cl)ccc(F)c1Cl [Crizotinib] (partner 1 µM) | 0.735 | 0.763 | 0.699 | 0.0941 | 1.14 | 0.787 | 0.81 | 0.833 | 0.304 | 0.992 | 0.981 | 0.982 | 0.881 | 0.183 | 0.187 | 0.207 | 0.142 | 0.907 | 0.953 | 0.773 | relative viability (A549; first compound 1.265 µM): 0.387; relative viability (ChaGo-K-1; first compound 0.04 µM): 1.12; relative viability (ChaGo-K-1; first compound 0.4 µM): 1.03; relative viability (ChaGo-K-1; first compound 1.265 µM): 0.888; relative viability (Calu-6; first compound 0.04 µM): 0.767; relative viability (Calu-6; first compound 1.265 µM): 0.616; relative viability (NCI-H1299; first compound 1.265 µM): 0.976; relative viability (EBC-1; first compound 1.265 µM): 0.171; relative viability (IA-LM; first compound 1.265 µM): 0.632; relative viability (IA-LM; first compound 4 µM): 0.758; relative viability (NCI-H1703; first compound 0.04 µM): 0.581; relative viability (NCI-H1703; first compound 0.1265 µM): 0.523; relative viability (NCI-H1703; first compound 0.4 µM): 0.54; relative viability (NCI-H1703; first compound 1.265 µM): 0.327; relative viability (NCI-H1703; first compound 4 µM): 0.175
